# Assay results as given in patent publication US20220281868A1, “MACROCYCLIC DERIVATIVES AS FACTOR XIA INHIBITORS” (MEDSHINE DISCOVERY INC., priority 2019, published 2022).
# pIC50: −log10 of the molar value.
# What was measured:
# [1] = target: T1, human factor XIa (Homo sapiens, UniProt P03951); assay: Screening test of enzyme inhibitory activity on hFXIa; type: biochemical; conditions: substrate S-2366/S-2306, 37° C. 10 minutes, absorbance 405 nm, pH 7.4
# T1 construct: Enzyme, Human Factor XIa (Human Factor XIa, Abcam, Cat #ab62411); purchased Abcam ab62411
# T1 sequence (P03951 388-625 limits assumed): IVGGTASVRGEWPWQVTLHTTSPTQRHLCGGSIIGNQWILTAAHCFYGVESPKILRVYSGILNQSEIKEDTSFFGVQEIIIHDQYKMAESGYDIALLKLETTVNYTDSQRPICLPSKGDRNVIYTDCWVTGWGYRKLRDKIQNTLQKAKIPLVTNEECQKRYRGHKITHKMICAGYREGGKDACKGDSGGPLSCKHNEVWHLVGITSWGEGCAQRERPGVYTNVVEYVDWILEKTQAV
# T1 sequence (P03951 19-387 partner limits assumed): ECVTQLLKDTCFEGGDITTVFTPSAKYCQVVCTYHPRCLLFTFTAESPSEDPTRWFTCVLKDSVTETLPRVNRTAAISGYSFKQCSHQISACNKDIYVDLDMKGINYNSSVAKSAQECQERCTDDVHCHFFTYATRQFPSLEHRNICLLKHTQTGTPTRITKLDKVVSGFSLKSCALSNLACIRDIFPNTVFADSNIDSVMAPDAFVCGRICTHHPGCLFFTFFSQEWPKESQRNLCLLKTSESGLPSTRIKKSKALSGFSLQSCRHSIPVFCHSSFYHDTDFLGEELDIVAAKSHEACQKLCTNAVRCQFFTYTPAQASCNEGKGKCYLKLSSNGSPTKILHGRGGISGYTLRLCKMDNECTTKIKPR
# Description: 1. Screening Test of Enzyme Inhibitory Activity on hFXIa (Human Factor XIa)
# (§1) Purpose of the Experiment:
# Detection of the inhibitory activity of the compounds of the present disclosure on human factor XIa
# 1) Experimental buffer pH 7.4
# 100 mM Tris-HCl (Sigma, catalog number: T2663, batch number: SLBG2775)
# 200 mM NaCl (Sigma, catalog number: 13423, batch number: SZBB2360V)
# 2) Enzymes and Substrates
# Enzyme, Human Factor XIa (Human Factor XIa, Abcam, Cat #ab62411): Total amount: 50 μg. Dissolved with experimental buffer and packed separately.
# Substrate S-2366 (DiaPharma, catalog number: S821090): 25 mg
# 3) Instruments and Consumables
# SpectraMax 340PC Multifunctional Microplate Reader (Molecular Devices)
# 384-well black transparent reaction plate (Corning Cata #3712)
# Echo Liquid Workstation (Labcyte)
# Echo 384-well polypropylene compound plate (Labcyte-P-05525) was used.
# Echo 384 Shallow Pore Polypropylene Compound plate (Labcyte-LP-0200, 2.5-12 μL) was used.
# Multidrop automatic dispenser (Thermo Scientific)
# Multidrop Consumables (Thermo Scientific-24073290) […]
# 7) The reaction plate was placed in SpectraMax 340PC and incubated at 37° C. for 10 minutes, and the absorbance was detected at 405 nm.
# 8) Data were analyzed using GraphPad Prism 5.0
# % Inhibition rate=100%×[1−(sample reading-low signal average value)/(high signal average value-low signal average value)]
# IC50 was analyzed using 4-factor linear regression: […]
# [2] = system: human plasma; assay: Determination of aPTT (activated partial thromboplastin time) in human plasma in vitro; conditions: coagulation time
# Excerpt: 2. Determination of aPTT (Activated Partial Thromboplastin Time) in Human Plasma In Vitro
# as §1
# Detection of the anticoagulant effect of the compounds of the present disclosure on human plasma in vitro
# 1) Coagulation quality control plasma: produced by TECO, Germany, batch number: 093B-J186A
# 2) aPTT test solution: produced by TECO, Germany, batch number: 20002745; CaCl2): produced by TECO, Germany, batch number: 031N-J073A; DMSO: Sangon Bioengineering (Shanghai) Co., Ltd., batch number: BB02BA0001
# 3) Instrument: Germany Meichuang MC-4000 blood coagulation instrument
# 1) Sample solution preparation: 10 mM compound stock solution was prepared with DMSO, and then serially diluted with DMSO as follows: […], 2500, 625, 156.25, 39.06, 9.76, 2.44 μM; then series of concentrations were diluted with tris(hydroxymethylaminomethane) buffer (containing 5% Tween 80) 10 times for use, and the drug to plasma volume ratio was 1:9 during detection. […]
# 4) Test detection: According to the instructions of the kit, the sample solution to be tested or the reference solution were added into the 37° C. preheated colorimetric cup, preheated at 37° C. for 2 min, aPTT reagent was added, incubated at 37° C. for 3 min, 0.02 M CaCl2 (preheated at 37° C.) was added, and the coagulation time was recorded.
pIC50 [1],Compound,aPTT2x [2]
8.64,C[C@@H]1CCCC(c2coc(-c3cc(Cl)ccc3-n3cc(C#N)nn3)cc2=O)c2cc(ccn2)-c2c(cnn2C(F)F)NC1=O (stereo partly shown) [Compound 4],–
8.46,[2H]C([2H])([2H])n1ncc2c1-c1ccnc(c1)C(c1coc(-c3c(-n4cc(Cl)nn4)ccc(Cl)c3F)cc1=O)CCCC(C)C(=O)N2 (stereo not shown) [Compound 8-1],4.94 µM
–,Enoxaparin [reference compound],4.61 µM
